US11400083B2, “CXCR4 antagonists with amino acid skeleton, preparation therefor and biomedical use thereof” (Tsinghua University, priority 2017, dated 2022)

Assays:
CXCR4 [1] = target: T1, CXCR4 (Homo sapiens, UniProt P61073); assay: Inhibition of intracellular calcium mobilization (SupT1 cells, SDF-1α, Fluo-4); type: cell-based; settings: 50 nM SDF-1α
Experimental: 3. Experimental method: the cell line used in this assay was SupT1. Prior to the experiment, the cells were collected and washed with an experimental buffer (an HBSS buffer containing 20 mM HEPES), and then incubated with a buffer containing 4 μM Fluo-4 and 1 mM probenecid sodium for 30 min at 37° C., after which the residual dye was washed away, and the cells were suspended to a concentration of 2×10^6 cells/ml. Afterwards, 200 μl of the cell suspension was taken and added to a black 96-well plate, and absorption values of the cells at 494 nmEX/516 nmEM were recorded. Subsequently, different concentrations of compound were added and mixed uniformly, and the baseline was recorded. Thereafter, 50 nM of the SDF-1α was added and mixed uniformly. Signals of calcium ions were recorded, and the differences in fluorescence intensity between a group without addition of the compound and groups added with different concentrations of the compound were observed. 4.

CXCR4 [2] = target: T1, CXCR4; assay: Inhibition of CXCR4 induced cell migration (SupT1 cells, SDF-1α, transwell); type: cell-based; settings: 2 nM SDF-1α, concentration-dependent, FIG. 1
Experimental: 1. Experimental method: the assay on the CXCR4 induced cell migration was detected using SupT1 cell line which naturally expresses the CXCR4. SupT1 cells cultured and suspended in RPMI 1640 (containing 10% fetal bovine serum, 100 IU penicillin and 0.1 mg/ml streptomycin) were collected and then washed with RPMI 1640 containing 0.5% BSA, after which the cells are counted and suspended to a concentration of 3.0×10^7 cells/ml, and then uniformly mixed with different concentrations of compound. Then, 75 μl of the obtained mixture was taken and added to a tranwell insert, and incubated at 37° C. for 30 min. […] After incubation at 37° C. for 3 hours, the tranwell insert was removed, and 40 μl of CellTiter 96 (Promega) was added to each cell of the lower culture plate. After 1 to 4 hours of incubation, absorption values at 490 nm were detected. The experimental results of each group were obtained by at least three independent experiments, and the inhibition curve was plotted by the GraphPad software. 2.

[3] = Cytotoxicity assay (CellTiter 96, 72 h); type: cell-based; settings: human; HEK293 cells, 72 hours incubation
Experimental: 1. Experimental method: the experiment was carried out using HEK293 cell line. The HEK293 cells cultured in DMEM medium (containing 10% fetal bovine serum, 100 IU penicillin and 0.1 mg/ml streptomycin) were trypsinized, counted, and plated in a 96-well plate with each well containing 100 μl suspension and including 3×10^3 cells in total. After culturation in a constant-temperature incubator containing 5% CO2 at 37° C. overnight, different concentrations of the compound were added. After 72 hours of incubation in total, 20 μl CellTiter 96 was added to further incubate for 1 to 4 hours, and then an absorption value at 490 nm was measured on a microplate reader. The changes in cell viability prior to and subsequent to the addition of the compound were observed by comparing the values of the blank control group and the experimental group. 2.

CXCR4 [4] = target: T1, CXCR4; assay: Binding affinity assay on CXCR4 receptor protein (inhibition of 12G5 monoclonal antibody binding, CHO cells stably transfected with CXCR4); design: expressed in transfected cells; host or cells: CHO cells, stably transfected (G418 selection); settings: 40 min; 0.1 μM compound; inhibition of 12G5 antibody binding to CXCR4 on CHO-CXCR4 cells; read-out: Inhibition ratio interval of compounds at 0.1 μM
Experimental: 3. Experimental method: the cell line used for the affinity activity assay of the CXCR4 was a CHO cell line constructed in vitro and stably transfected with CXCR4. The CHO cell line cultured in DMEM medium (containing 10% fetal bovine serum, 100 IU penicillin, 0.1 mg/ml streptomycin and 0.2 mg/ml G418) was trypsinized, washed, counted, and then suspended in an FACS buffer (PBS containing 0.5% BSA and 0.05% NaN3), followed by being plated in a 96-well plate. Each cell contains 100 μl of the reaction system, which includes 5×10^5 cells, 250 ng/ml 12G5 monoclonal antibody and different concentrations of compound for detection. After incubated on ice for 40 min and washed with the FACS buffer, the reaction system was added with the secondary antibody (anti-mouse FITC-labeled IgG) for further incubation on ice for 30 min and then washed twice with the FACS buffer. Absorption values at 485 nmEX/535 nmEM were measured on a microplate reader (PerkinElmer), and fluorescence intensities were recorded. For each compound, a percentage of the compound that inhibits the binding of the 12G5 monoclonal antibody to the receptor CXCR4, i.e. a binding inhibition ratio at 0.1 μM, was calculated. 4. […] The inhibition ratio of the compounds is divided into the following intervals: 75% to 100% for A, 50% to 74% for B, 25% to 49% for C, and 0 to 24% for D.

T1 sequence (P61073 whole entry): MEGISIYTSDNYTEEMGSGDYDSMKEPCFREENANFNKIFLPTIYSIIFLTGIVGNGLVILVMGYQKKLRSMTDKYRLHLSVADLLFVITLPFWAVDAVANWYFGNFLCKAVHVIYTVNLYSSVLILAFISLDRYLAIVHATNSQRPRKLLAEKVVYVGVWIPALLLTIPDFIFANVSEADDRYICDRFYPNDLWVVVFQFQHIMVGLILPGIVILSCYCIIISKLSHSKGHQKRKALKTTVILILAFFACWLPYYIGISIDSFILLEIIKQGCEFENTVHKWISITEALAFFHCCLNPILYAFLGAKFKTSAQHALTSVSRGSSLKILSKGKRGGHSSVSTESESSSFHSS

Inhibition of signal of calcium mobilization (CXCR4 [1]; compound at 1.0 μM, FIG. 3) | Inhibition of signal of calcium mobilization (CXCR4 [1]; compound at 0.2 μM, FIG. 2) | Inhibition of CXCR4 induced cell migration (CXCR4 [2]) | inhibition at 0.1 µM (CXCR4 [4]) [%] | Compound | IC50 at 72 h [3] [µM]
 | completely inhibit | significant inhibiting ability | 75 to 100 | N=C(N)NCCC[C@H](NCc1ccccn1)C(=O)NCc1ccc(CNCCCNC2CCCCC2)cc1 [Compound 1] | > 50
 |  |  | 50 to 74 | N=C(N)NCCC[C@H](NC(=O)c1ccc(F)cc1)C(=O)NCc1ccc(CNCCCNC2CCCCC2)cc1 [Compound 2] | > 50
 |  |  | 0 to 24 | N=C(N)NCCC[C@H](NCc1ccccn1)C(=O)NCc1ccc(CNC2CCCCC2)cc1 [Compound 4] | > 50
 |  |  | 25 to 49 | N=C(N)NCCC[C@H](N)C(=O)NCc1ccc(CNCCCNC2CCCCC2)cc1 [Compound 5] | > 50
 |  |  | 50 to 74 | N=C(N)NCCC[C@@H](NCc1ccccn1)C(=O)NCc1ccc(CNCCCNC2CCCCC2)cc1 [Compound 6] | > 50
 |  |  | 50 to 74 | N=C(N)NCCC[C@H](NC(=O)C1CCC(F)(F)CC1)C(=O)NCc1ccc(CNCCCNC2CCCCC2)cc1 [Compound 7] | > 50
 |  |  | 50 to 74 | N=C(N)NCCC[C@H](NCc1ccc(F)cc1)C(=O)NCc1ccc(CNCCCNC2CCCCC2)cc1 [Compound 8] | > 50
 |  |  | 75 to 100 | CN(C)c1ccc(CN[C@@H](CCCNC(=N)N)C(=O)NCc2ccc(CNCCCNC3CCCCC3)cc2)cc1 [Compound 9] | > 50
 |  |  | 50 to 74 | N=C(N)NCCC[C@H](NCc1cccc2ccccc12)C(=O)NCc1ccc(CNCCCNC2CCCCC2)cc1 [Compound 10] | > 50
 |  |  | 50 to 74 | N=C(N)NCCC[C@H](NCc1ncc[nH]1)C(=O)NCc1ccc(CNCCCNC2CCCCC2)cc1 [Compound 13] | > 50
 |  |  | 0 to 24 | N=C(N)NCCC[C@H](NC1CCCc2cccnc21)C(=O)NCc1ccc(CNCCCNC2CCCCC2)cc1 (some centres unmarked) [Compound 14] | 
 |  |  | 50 to 74 | N=C(N)NCCC[C@H](NC1CCCCC1)C(=O)NCc1ccc(CNCCCNC2CCCCC2)cc1 [Compound 15] | > 20
 |  |  | 75 to 100 | N=C(N)NCCC[C@H](NCC1CCCCC1)C(=O)NCc1ccc(CNCCCNC2CCCCC2)cc1 [Compound 16] | > 50
 |  |  | 75 to 100 | NCCCC[C@H](NCc1ccccn1)C(=O)NCc1ccc(CNCCCNC2CCCCC2)cc1 [Compound 17] | > 50
 |  |  | 50 to 74 | O=C(NCc1ccc(CNCCCNC2CCCCC2)cc1)[C@H](CCCNC1CCCCC1)NCc1ccccn1 [Compound 20] | > 50

Second part, the compound before the results:

Compound | Inhibition of signal of calcium mobilization (CXCR4 [1]; compound at 1.0 μM, FIG. 3) | Inhibition of signal of calcium mobilization (CXCR4 [1]; compound at 0.2 μM, FIG. 2) | Inhibition of CXCR4 induced cell migration (CXCR4 [2]) | inhibition at 0.1 µM (CXCR4 [4]) [%] | IC50 at 72 h [3] [µM]
c1cc(CN2CCCNCCNCCCNCC2)ccc1CN1CCCNCCNCCCNCC1 [AMD3100, plerixafor, reference compound] | fails to inhibit |  |  |  | 
N=C(N)NCCC[C@H](NCc1ccccn1)C(=O)NCc1ccccc1 [Compound 3] |  |  |  | 0 to 24 | 
N=C(N)NCCC[C@H](NCc1ccc(-c2ccccc2)cc1)C(=O)NCc1ccc(CNCCCNC2CCCCC2)cc1 [Compound 11] |  |  |  | 50 to 74 | > 50
N=C(N)NCCC[C@H](NCc1cc(C(F)(F)F)cc(C(F)(F)F)c1)C(=O)NCc1ccc(CNCCCNC2CCCCC2)cc1 [Compound 12] |  |  |  | 0 to 24 | > 50
CC(C)NCCCC[C@H](NCc1ccccn1)C(=O)NCc1ccc(CNCCCNC2CCCCC2)cc1 [Compound 18] |  |  |  | 75 to 100 | > 50
O=C(NCc1ccc(CNCCCNC2CCCCC2)cc1)[C@H](CCCCNC1CCCCC1)NCc1ccccn1 [Compound 19] |  |  |  | 75 to 100 | > 50
O=C(NCc1ccc(CNCCCNC2CCCCC2)cc1)[C@H](Cc1c[nH]cn1)NCc1ccccn1 [Compound 21] |  |  |  | 75 to 100 | > 50
O=C(O)C[C@H](NCc1ccccn1)C(=O)NCc1ccc(CNCCCNC2CCCCC2)cc1 [Compound 22] |  |  |  | 50 to 74 | > 50
C[C@H](NCc1ccccn1)C(=O)NCc1ccc(CNCCCNC2CCCCC2)cc1 [Compound 23] |  |  |  | 75 to 100 | > 50
O=C(NCc1ccc(CNCCCNC2CCCCC2)cc1)[C@H](CO)NCc1ccccn1 [Compound 24] |  |  |  | 75 to 100 | > 50
O=C(NCc1ccc(CNCCCNC2CCCCC2)cc1)[C@H](Cc1ccc2ccccc2c1)NCc1ccccn1 [Compound 25] |  |  |  | 50 to 74 | > 10
O=C(NCc1ccc(CNCCCNC2CCCCC2)cc1)[C@H](Cc1c[nH]c2ccccc12)NCc1ccccn1 [Compound 26] |  |  |  | 75 to 100 | > 50
O=C(NCc1ccc(CNCCCNC2CCCCC2)cc1)[C@H](Cc1ccc(O)cc1)NCc1ccccn1 [Compound 27] |  |  |  | 50 to 74 | > 50
CC(C)C[C@H](NCc1ccccn1)C(=O)NCc1ccc(CNCCCNC2CCCCC2)cc1 [Compound 28] |  |  |  | 25 to 49 | > 50
O=C(NCc1ccc(CNCCCNC2CCCCC2)cc1)[C@@H]1CCCN1Cc1ccccn1 [Compound 29] |  |  |  | 75 to 100 | > 50
O=C(NCc1ccc(CNCCCNC2CCCCC2)cc1)[C@@H]1Cc2ccccc2CN1Cc1ccccn1 [Compound 30] |  |  |  | 75 to 100 | > 20
N=C(N)NCCC[C@H](NC(=O)[C@@H](N)Cc1ccc(O)cc1)C(=O)NCc1ccc(CNCCCNC2CCCCC2)cc1 [Compound 31] |  |  |  | 75 to 100 | > 50
N=C(N)NCCC[C@H](N)C(=O)N[C@@H](Cc1ccc2ccccc2c1)C(=O)NCc1ccc(CNCCCNC2CCCCC2)cc1 [Compound 32] |  |  |  | 75 to 100 | > 50
